For orientation: viability, T/C means the ratio of treated to control. The term pIC50 denotes the negative decadic logarithm of the IC50, by convention in mol/L.

Molecules are shown by their SMILES. pIC50: −log10 of the molar value. Where “and” joins values, the source holds several entries; their conditions need not be identical. Equal entries are not always repeated.

For this test, the system named is NCI-H196 complex spheroid viability. In words: Anticancer human tumor NCI-H196 cell line growth inhibition [LSD1].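 As to all read-outs here: spheroids exposed to agents for 7 days before readout.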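 As to viability, T/C: 100% = DMSO vehicle control viability.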 The settings on record: for viability, T/C: stronger effect = lower value. In short, it runs like this:
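Drug combinations with the LSD1 inhibitor iadademstat tested on tumor cells co-cultured as spheroids with endothelial cells and mesenchymal stem cells. Concentrations descended in half-log increments from clinical Cmax or 10 microM.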

[1] abbreviates: curve of first compound, second compound 0.1 µM.
The mark [2] stands for this setting: curve of first compound, second compound 0.316 µM.
[3] abbreviates: curve of first compound, second compound 1 µM.
The mark [4] stands for this setting: curve of first compound, second compound 3.16 µM.
Where [5] appears, read: curve of first compound, second compound 10 µM.
The mark [6] stands for this setting: second compound 0.1 µM, first compound 0.0316 µM.
The mark [7] stands for this setting: second compound 0.1 µM, first compound 0.1 µM.
Setting [8] is: second compound 0.1 µM, first compound 0.316 µM.
[9] abbreviates: second compound 0.1 µM, first compound 1 µM.
[10] abbreviates: second compound 0.316 µM, first compound 0.0316 µM.
Where [11] appears, read: second compound 0.316 µM, first compound 0.1 µM.
Where [12] appears, read: second compound 0.316 µM, first compound 0.316 µM.
[13] abbreviates: second compound 0.316 µM, first compound 1 µM.
Setting [14] is: second compound 1 µM, first compound 0.0316 µM.
The mark [15] stands for this setting: second compound 1 µM, first compound 0.1 µM.
The mark [16] stands for this setting: second compound 1 µM, first compound 0.316 µM.
Setting [17] is: second compound 1 µM, first compound 1 µM.
[18] abbreviates: second compound 3.16 µM, first compound 0.0316 µM.
[19] abbreviates: second compound 3.16 µM, first compound 0.1 µM.
Setting [20] is: second compound 3.16 µM, first compound 0.316 µM.
[21] abbreviates: second compound 3.16 µM, first compound 1 µM.
Setting [22] is: second compound 10 µM, first compound 0.0316 µM.
Setting [23] is: second compound 10 µM, first compound 0.1 µM.
[24] abbreviates: second compound 10 µM, first compound 0.316 µM.
Setting [25] is: second compound 10 µM, first compound 1 µM.

On to `NS(=O)(=O)OCC1CC(n2ccc3c(NC4CCc5ccccc54)ncnc32)CC1O` (stereo not drawn), for which the viability, T/C by setting is: (compound 0.00949 µM) 109% and 80.7%; (compound 0.03 µM) 94.8% and 79.4%; (compound 0.0949 µM) 75.2% and 67.4%; (compound 0.3 µM) 83.8% and 77.4%; (compound 0.949 µM) 79.3% and 74.5%; (compound 3 µM) 67.7% and 66.8%. For the same molecule, for the setting “curve of compound”, the pIC50 was under 5.52.
As to `CC1COCCN1c1cc(-c2ccnn2C)c2ccnc(-c3ccn[nH]3)c2n1` (stereo not drawn) + NC1CC1c1ccc(-c2cccc(O)c2)cc1, the pIC50 reads like this: under setting [1], 6.43; under setting [2], 6.75; under setting [3], 7.02; under setting [4], 6.67; under setting [5], 6.77. Further, the viability, T/C by setting is: (second compound 0.1 µM, first compound 0.00316 µM) 79.2%; (second compound 0.1 µM, first compound 0.01 µM) 74.4%; under setting [6], 72.5%; under setting [7], 57.1%; under setting [8], 49.8%; under setting [9], 43.2%. Also, the viability, T/C is 72.4% (second compound 0.316 µM, first compound 0.00316 µM); 78.7% (second compound 0.316 µM, first compound 0.01 µM); 71.4% under setting [10]; 55.4% under setting [11]; 45.4% under setting [12]; 38.4% under setting [13]. In addition, the viability, T/C by setting is: (second compound 1 µM, first compound 0.00316 µM) 85.6%; (second compound 1 µM, first compound 0.01 µM) 87.6%; under setting [14], 65.5%; under setting [15], 51%; under setting [16], 51.4%; under setting [17], 45.9%. The viability, T/C is 86.6% (second compound 3.16 µM, first compound 0.00316 µM); 83.5% (second compound 3.16 µM, first compound 0.01 µM); 70.9% under setting [18]; 56.1% under setting [19]; 47.7% under setting [20]; 41.5% under setting [21]. For the same molecule, the viability, T/C is, setting by setting: (second compound 10 µM, first compound 0.00316 µM) 89.4%; (second compound 10 µM, first compound 0.01 µM) 81.2%; under setting [22], 79.3%; under setting [23], 55.2%; under setting [24], 43.5%; under setting [25], 40.9%.
For the molecule `O=C(C=Cc1cccc(S(=O)(=O)Nc2ccccc2)c1)NO` + NC1CC1c1ccc(-c2cccc(O)c2)cc1, the pIC50 is 6.86 under setting [1]; 6.89 under setting [2]; 6.83 under setting [3]; 6.86 under setting [4]; 6.82 under setting [5]. Moreover, the viability, T/C reads like this: (second compound 0.1 µM, first compound 0.00949 µM) 106%; (second compound 0.1 µM, first compound 0.03 µM) 91.2%; (second compound 0.1 µM, first compound 0.0949 µM) 70.3%; (second compound 0.1 µM, first compound 0.3 µM) 9.6%; (second compound 0.1 µM, first compound 0.949 µM) 0.22%; (second compound 0.1 µM, first compound 3 µM) 0.32%. Further, the viability, T/C was 96.7% (second compound 0.316 µM, first compound 0.00949 µM); 92.6% (second compound 0.316 µM, first compound 0.03 µM); 64.3% (second compound 0.316 µM, first compound 0.0949 µM); 10.6% (second compound 0.316 µM, first compound 0.3 µM); 0.24% (second compound 0.316 µM, first compound 0.949 µM); 0.42% (second compound 0.316 µM, first compound 3 µM). Besides, the viability, T/C reads like this: (second compound 1 µM, first compound 0.00949 µM) 112%; (second compound 1 µM, first compound 0.03 µM) 89.5%; (second compound 1 µM, first compound 0.0949 µM) 75.1%; (second compound 1 µM, first compound 0.3 µM) 13.9%; (second compound 1 µM, first compound 0.949 µM) 1.06%; (second compound 1 µM, first compound 3 µM) 0.34%. The viability, T/C runs as follows: (second compound 3.16 µM, first compound 0.00949 µM) 101%; (second compound 3.16 µM, first compound 0.03 µM) 101%; (second compound 3.16 µM, first compound 0.0949 µM) 68.6%; (second compound 3.16 µM, first compound 0.3 µM) 10%; (second compound 3.16 µM, first compound 0.949 µM) 1.82%; (second compound 3.16 µM, first compound 3 µM) 0.33%. Further, the viability, T/C (second compound 10 µM, first compound 0.00949 µM) is 115%; the viability, T/C (second compound 10 µM, first compound 0.03 µM) is 92.6%; the viability, T/C (second compound 10 µM, first compound 0.0949 µM) is 76.3%; the viability, T/C (second compound 10 µM, first compound 0.3 µM) is 14.5%; the viability, T/C (second compound 10 µM, first compound 0.949 µM) was 0.36%; the viability, T/C (second compound 10 µM, first compound 3 µM) is 0.36%.
`CC(C)CC(NC(=O)CNC(=O)c1cc(Cl)ccc1Cl)B1OC(=O)CC(CC(=O)O)(C(=O)O)O1` (stereo not drawn): the viability, T/C is, setting by setting: (compound 0.000316 µM) 108% and 104%; (compound 0.001 µM) 113% and 107%; (compound 0.00316 µM) 103% and 92%; (compound 0.01 µM) 83.3% and 57.1%; (compound 0.0316 µM) 34.6% and 20.3%; (compound 0.1 µM) 6.61% and 4.84%. Further, the pIC50 (curve of compound) is 7.66 and 7.90.
Regarding `CC1COCCN1c1cc(-c2ccnn2C)c2ccnc(-c3ccn[nH]3)c2n1` (stereo not drawn), the viability, T/C is, setting by setting: (compound 0.00316 µM) 77.7% and 75.2%; (compound 0.01 µM) 77.9% and 70%; (compound 0.0316 µM) 64.6% and 70%; (compound 0.1 µM) 65.4% and 57.1%; (compound 0.316 µM) 55.8% and 53.1%; (compound 1 µM) 47.5% and 46.9%. Also, the pIC50 (curve of compound) is 6.14 and 6.27.
`CC[C@@]1(O)C(=O)OCc2c1cc1n(c2=O)Cc2cc3c(CN(C)C)c(O)ccc3nc2-1`: the viability, T/C is, setting by setting: (compound 0.000316 µM) 98.3% and 97.6%; (compound 0.001 µM) 99% and 93.1%; (compound 0.00316 µM) 95.1% and 99.2%; (compound 0.01 µM) 109% and 97.3%; (compound 0.0316 µM) 110% and 115%; (compound 0.1 µM) 106% and 102%. For the same molecule, the pIC50 (curve of compound) is under 7.00.
Consider `CC1COCCN1c1cc(C2(S(C)(=N)=O)CC2)nc(-c2ccnc3[nH]ccc23)n1` (stereo not drawn) + NC1CCC(NC2CC2c2ccccc2)CC1, for which the pIC50 is, setting by setting: under setting [1], under 5.00; under setting [2], under 5.00; under setting [3], under 5.00; under setting [4], under 5.00; under setting [5], under 5.00. In addition, the viability, T/C by setting is: under setting [6], 95.7%; under setting [7], 100%; under setting [8], 99%; under setting [9], 87.5%; (second compound 0.1 µM, first compound 3.16 µM) 89%; (second compound 0.1 µM, first compound 10 µM) 67.4%. In addition, the viability, T/C is 101% under setting [10]; 99.5% under setting [11]; 110% under setting [12]; 89.5% under setting [13]; 88.3% (second compound 0.316 µM, first compound 3.16 µM); 70.8% (second compound 0.316 µM, first compound 10 µM). Further, the viability, T/C is 101% under setting [14]; 96.4% under setting [15]; 95.5% under setting [16]; 85.8% under setting [17]; 79.5% (second compound 1 µM, first compound 3.16 µM); 72.2% (second compound 1 µM, first compound 10 µM). For the same molecule, the viability, T/C reads like this: under setting [18], 97.4%; under setting [19], 100%; under setting [20], 93.7%; under setting [21], 85.5%; (second compound 3.16 µM, first compound 3.16 µM) 79.5%; (second compound 3.16 µM, first compound 10 µM) 70.2%. Also, the viability, T/C reads like this: under setting [22], 96.9%; under setting [23], 108%; under setting [24], 100%; under setting [25], 98%; (second compound 10 µM, first compound 3.16 µM) 77.3%; (second compound 10 µM, first compound 10 µM) 68.2%.

The record behind these values is PubChem BioAssay AID1918958 (Molecular Pharmacology Branch, DTP, NCI, 2023).
